How the values were obtained:
Assay in all cases: relative viability (nuclei count vs DMSO), 5 days (fraction); higher = more cells survive
Imatinib + Vorinostat = compound: Cc1ccc(NC(=O)c2ccc(CN3CCN(C)CC3)cc2)cc1Nc1nccc(-c2cccnc2)n1 [Imatinib] + O=C(CCCCCCC(=O)Nc1ccccc1)NO [Vorinostat] (partner 1 µM)
In short: (§1)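 Lung cancer cell lines in 1536-well plates were dosed by pin tool the day after seeding, either with one drug alone or with a fixed anchor-drug dose plus five library-drug doses (not always all listed) in √10 steps. After 5 days, cells were fixed and their nuclei stained in one step (final 0.05% Triton X-100, 1% formaldehyde, 1 ug/ml Hoechst), then counted on 4× images. Relative viability is the nuclei count in treated wells divided by that in vehicle wells. Values are medians of duplicate plates.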

Imatinib + Decitabine = compound: Cc1ccc(NC(=O)c2ccc(CN3CCN(C)CC3)cc2)cc1Nc1nccc(-c2cccnc2)n1 [Imatinib] + Nc1ncn([C@H]2C[C@H](O)[C@@H](CO)O2)c(=O)n1 [Decitabine] (partner 2 µM)
In short: as §1

Imatinib + Phenformin = compound: Cc1ccc(NC(=O)c2ccc(CN3CCN(C)CC3)cc2)cc1Nc1nccc(-c2cccnc2)n1 [Imatinib] + N=C(N)NC(=N)NCCc1ccccc1 [Phenformin] (partner 250 µM)
In short: as §1

Imatinib + Olaparib = compound: Cc1ccc(NC(=O)c2ccc(CN3CCN(C)CC3)cc2)cc1Nc1nccc(-c2cccnc2)n1 [Imatinib] + O=C(c1cc(Cc2n[nH]c(=O)c3ccccc23)ccc1F)N1CCN(C(=O)C2CC2)CC1 [Olaparib] (partner 8 µM)
In short: as §1

Cell Line	relative viability (Imatinib + Vorinostat; first compound 0.02 µM)	relative viability (Imatinib + Vorinostat; first compound 0.06325 µM)	relative viability (Imatinib + Vorinostat; first compound 0.2 µM)	relative viability (Imatinib + Vorinostat; first compound 0.6325 µM)	relative viability (Imatinib + Vorinostat; first compound 2 µM)	relative viability (Imatinib + Decitabine; first compound 0.02 µM)	relative viability (Imatinib + Decitabine; first compound 0.06325 µM)	relative viability (Imatinib + Decitabine; first compound 0.2 µM)	relative viability (Imatinib + Decitabine; first compound 0.6325 µM)	relative viability (Imatinib + Decitabine; first compound 2 µM)	relative viability (Imatinib + Phenformin; first compound 0.02 µM)	relative viability (Imatinib + Phenformin; first compound 0.06325 µM)	relative viability (Imatinib + Phenformin; first compound 0.2 µM)	relative viability (Imatinib + Phenformin; first compound 0.6325 µM)	relative viability (Imatinib + Phenformin; first compound 2 µM)	relative viability (Imatinib + Olaparib; first compound 0.02 µM)	relative viability (Imatinib + Olaparib; first compound 0.06325 µM)	relative viability (Imatinib + Olaparib; first compound 0.2 µM)	relative viability (Imatinib + Olaparib; first compound 0.6325 µM)	relative viability (Imatinib + Olaparib; first compound 2 µM)
NCI-H647	0.459	0.888	0.593	0.549	0.619	0.454	0.432	0.421	0.366	0.37	0.518	0.696	0.611	0.513	0.461	0.803	0.67	0.792	0.588	0.495
NCI-H650	0.388	0.597	0.448	0.466	0.466	0.299	0.36	0.291	0.313	0.262	0.505	0.435	0.516	0.494	0.425	0.432	0.405	0.392	0.431	0.383
NCI-H661	0.823	0.87	0.845	0.778	0.74	0.597	0.592	0.532	0.585	0.613	0.245	0.255	0.259	0.263	0.258	0.747	0.94	0.853	0.773	0.703
NCI-H727	1.28	–	–	1.14	1.34	–	–	0.904	0.84	0.808	0.653	–	0.876	0.522	0.522	0.644	–	0.696	0.712	0.664
NCI-H838	0.77	0.786	0.74	0.708	0.76	0.464	0.497	0.469	0.488	0.424	0.555	0.668	0.64	0.619	0.596	0.88	0.988	–	0.883	0.852
NCI-H1355	0.733	–	0.688	0.579	0.609	0.359	–	0.35	0.345	0.35	0.493	–	0.461	0.409	0.391	0.812	–	0.822	0.762	0.699
NCI-H1395	0.687	–	0.67	0.698	0.594	0.754	–	0.656	0.678	0.69	0.472	0.4	0.438	0.471	0.447	0.455	–	0.405	0.428	0.409
NCI-H1437	0.934	0.81	0.883	0.998	0.786	0.587	0.664	0.597	0.629	0.578	0.267	0.326	0.361	0.308	0.283	0.692	0.703	0.719	0.686	0.604
NCI-H1650	0.605	0.527	0.477	0.441	0.452	0.476	0.367	0.42	0.371	0.425	0.499	0.473	0.329	0.388	0.385	1	0.938	0.944	0.859	0.84
NCI-H1651	0.603	0.49	0.631	0.547	0.548	0.56	0.297	0.643	0.591	0.599	0.338	0.35	0.329	0.339	0.374	0.173	0.231	0.177	0.19	0.166
NCI-H1666	1.04	0.986	1.06	1.27	0.946	0.699	0.716	0.779	0.796	0.727	0.534	0.613	0.592	0.663	0.551	0.734	0.763	0.769	0.833	0.74
NCI-H1734	0.92	–	0.832	0.856	0.717	0.522	–	0.573	0.486	0.533	0.382	0.389	0.431	0.368	0.357	0.621	–	0.605	0.648	0.639
NCI-H1755	0.875	0.835	0.649	0.742	0.653	0.689	0.693	0.702	0.708	0.69	0.643	0.674	0.596	0.568	0.536	0.946	0.848	0.968	0.881	0.85
NCI-H1793	0.703	–	0.94	0.716	0.565	0.477	–	0.522	0.447	0.445	0.388	–	0.375	0.284	0.257	0.92	–	1.22	0.782	0.88
NCI-H1915	0.613	–	0.516	0.461	0.471	0.257	–	0.281	0.276	0.243	0.38	–	0.387	0.377	0.371	0.237	–	0.253	0.26	0.234
NCI-H1944	0.605	0.573	0.536	0.512	0.439	0.427	0.394	0.474	0.401	0.444	0.185	0.2	0.188	0.199	0.162	0.448	0.337	0.414	0.394	0.459
NCI-H1975	0.698	0.741	0.73	0.686	0.686	0.365	0.373	0.369	0.38	0.365	0.446	0.43	0.407	0.425	0.357	0.756	0.815	0.947	0.803	0.712
